{"source": "patent US9265268B2", "about": "“Method of handling bananas” (priority 2009, dated 2016)", "assay_type_in_all_cases": "in vivo, Musa", "key": {"bananas [1]": {"tested_on": "bananas", "test": "Example US-3: comparison of production batches of MAP", "excerpt": "Bananas were harvested and shipped to Ephrata, Pa. as described in Example US-1 above. Upon arrival, bananas were removed from poly liners and placed into one of three types of bags: • (1) T-bags (as described above) • (2) MAP bags type M (as described above) • (3) MAP bags type D (as described above). Bananas in bags were exposed to the ripening cycle described above, except that the first day (“day 0”) of the ripening cycle was omitted. The bananas that were exposed to 1-MCP received that exposure when they were at color stage 2 to 2.2.\nAdditionally, a group of bananas remained in their bags at 17.8° C. for 17 days after exposure to 1-MCP and were evaluated at the end of those 17 days."}, "bananas [2]": {"tested_on": "bananas", "test": "Example US-7c: various number of bananas per bag (day on which sugar spots developed)", "conditions": "for SS day (day during holding at 17.8° C. on which sugar spots developed): MAP/MCP: MAP type M, 1,000 ppb 1-MCP", "method": "Bananas were handled and tested as in Example US-1, except that the number of bananas (“# of B”) per bag was varied. Results for MAP bags type M were compared at 0 1-MCP (“MAP only”) and at 1,000 ppb of 1-MCP (“MAP/MCP”). MAP only samples are comparative; MAP/MCP samples exemplify the present invention.\nAlso, the sugar spots were assessed. In this experiment, the number of the day during the holding at 17.8° C. on which sugar spots developed is noted (“SS day”). Bananas in T-bags (with either 0 or 1,000 ppb of 1-MCP) developed sugar spots on day 3."}, "bananas [3]": {"tested_on": "bananas", "test": "Example US-5: various levels of 1-MCP", "set-up": "SS (sugar spots): scale not given here", "conditions": "7 days", "method": "Bananas were grown, shipped, and ripened as described in Example US-1. All bananas were in T-bags through the ripening cycle. At color stage 3.0 to 4.0, the bananas, still in T-bags, were placed in various airtight containers; in each container, a specified concentration of 1-MCP was released into the air; bananas remained in those containers for 12 hours. After that, half of each treatment group was transferred to MAP bags, and all bananas were placed into post-MCP storage as in US-1. At the end of 7 days, bananas were evaluated for sugar spots (SS), color stage (CS), and firmness (F). Firmness was measured with a Fruit Texture Analyzer (Güss Company, Republic of South Africa) using a probe of 8 mm diameter."}, "[4]": {"conditions": "MAP with non-zero 1-MCP, 17 days in bags at 17.8° C., versus MAP without 1-MCP or T-bags with 1-MCP"}}, "data": [{"molecule": "CC1=CC1", "note": "[1-MCP, 1-methylcyclopropene]", "values": [{"measurement": "development of sugar spots on holding at 17.8° C.", "setting": "bananas [1]; MAP and non-zero 1-MCP", "result": "delayed the development of sugar spots"}, {"measurement": "color-stage numbers", "setting": "bananas [1]; [4]", "result": "lower color-stage numbers"}, {"measurement": "number of sugar spots", "setting": "bananas [1]; [4]", "result": "lower number of sugar spots"}, {"measurement": "SS day (day during holding at 17.8° C. on which sugar spots developed)", "setting": "bananas [2]; # of B 1", "result": 4}, {"measurement": "SS day (day during holding at 17.8° C. on which sugar spots developed)", "setting": "bananas [2]; # of B 3", "result": 5}, {"measurement": "SS day (day during holding at 17.8° C. on which sugar spots developed)", "setting": "bananas [2]; # of B 5", "result": 6}, {"measurement": "SS day (day during holding at 17.8° C. on which sugar spots developed)", "setting": "bananas [2]; # of B 7", "result": 8}, {"measurement": "SS day (day during holding at 17.8° C. on which sugar spots developed)", "setting": "bananas [2]; # of B 9", "result": 8}, {"measurement": "SS day (day during holding at 17.8° C. on which sugar spots developed)", "setting": "bananas [2]; # of B 12", "result": 8}, {"measurement": "day on which sugar spots developed", "setting": "bananas [2]; T-bags, 1,000 ppb of 1-MCP", "result": 3}, {"measurement": "CS (color stage)", "setting": "bananas [3]; MAP, 1 ppb 1-MCP", "result": 5.2}, {"measurement": "F (firmness)", "setting": "bananas [3]; MAP, 1 ppb 1-MCP", "result": 0.584, "unit": "kg"}, {"measurement": "SS (sugar spots)", "setting": "bananas [3]; MAP, 1 ppb 1-MCP", "result": 1.8}, {"measurement": "CS (color stage)", "setting": "bananas [3]; MAP, 5 ppb 1-MCP", "result": 4.8}, {"measurement": "F (firmness)", "setting": "bananas [3]; MAP, 5 ppb 1-MCP", "result": 0.602, "unit": "kg"}, {"measurement": "SS (sugar spots)", "setting": "bananas [3]; MAP, 5 ppb 1-MCP", "result": 0.5}, {"measurement": "CS (color stage)", "setting": "bananas [3]; MAP, 10 ppb 1-MCP", "result": 5.4}, {"measurement": "F (firmness)", "setting": "bananas [3]; MAP, 10 ppb 1-MCP", "result": 0.599, "unit": "kg"}, {"measurement": "SS (sugar spots)", "setting": "bananas [3]; MAP, 10 ppb 1-MCP", "result": 1.5}, {"measurement": "CS (color stage)", "setting": "bananas [3]; MAP, 25 ppb 1-MCP", "result": 5.6}, {"measurement": "F (firmness)", "setting": "bananas [3]; MAP, 25 ppb 1-MCP", "result": 0.603, "unit": "kg"}, {"measurement": "SS (sugar spots)", "setting": "bananas [3]; MAP, 25 ppb 1-MCP", "result": 0.8}, {"measurement": "CS (color stage)", "setting": "bananas [3]; MAP, 50 ppb 1-MCP", "result": 5.5}, {"measurement": "F (firmness)", "setting": "bananas [3]; MAP, 50 ppb 1-MCP", "result": 0.593, "unit": "kg"}, {"measurement": "SS (sugar spots)", "setting": "bananas [3]; MAP, 50 ppb 1-MCP", "result": 1.0}, {"measurement": "CS (color stage)", "setting": "bananas [3]; MAP, 100 ppb 1-MCP", "result": 5.2}, {"measurement": "F (firmness)", "setting": "bananas [3]; MAP, 100 ppb 1-MCP", "result": 0.581, "unit": "kg"}, {"measurement": "SS (sugar spots)", "setting": "bananas [3]; MAP, 100 ppb 1-MCP", "result": 1.0}, {"measurement": "CS (color stage)", "setting": "bananas [3]; MAP, 200 ppb 1-MCP", "result": 4.9}, {"measurement": "F (firmness)", "setting": "bananas [3]; MAP, 200 ppb 1-MCP", "result": 0.592, "unit": "kg"}, {"measurement": "SS (sugar spots)", "setting": "bananas [3]; MAP, 200 ppb 1-MCP", "result": 0.8}, {"measurement": "CS (color stage)", "setting": "bananas [3]; MAP, 1000 ppb 1-MCP", "result": 6.2}, {"measurement": "F (firmness)", "setting": "bananas [3]; MAP, 1000 ppb 1-MCP", "result": 0.617, "unit": "kg"}, {"measurement": "SS (sugar spots)", "setting": "bananas [3]; MAP, 1000 ppb 1-MCP", "result": 1.8}, {"measurement": "CS (color stage)", "setting": "bananas [3]; MAP, 5000 ppb 1-MCP", "result": 6.2}, {"measurement": "F (firmness)", "setting": "bananas [3]; MAP, 5000 ppb 1-MCP", "result": 0.602, "unit": "kg"}, {"measurement": "SS (sugar spots)", "setting": "bananas [3]; MAP, 5000 ppb 1-MCP", "result": 1.2}, {"measurement": "CS (color stage)", "setting": "bananas [3]; MAP, 50000 ppb 1-MCP", "result": 5.6}, {"measurement": "F (firmness)", "setting": "bananas [3]; MAP, 50000 ppb 1-MCP", "result": 0.585, "unit": "kg"}, {"measurement": "SS (sugar spots)", "setting": "bananas [3]; MAP, 50000 ppb 1-MCP", "result": 2.5}, {"measurement": "CS (color stage)", "setting": "bananas [3]; T-bag, 1 ppb 1-MCP", "result": 6.6}, {"measurement": "F (firmness)", "setting": "bananas [3]; T-bag, 1 ppb 1-MCP", "result": 0.561, "unit": "kg"}, {"measurement": "SS (sugar spots)", "setting": "bananas [3]; T-bag, 1 ppb 1-MCP", "result": 2.2}, {"measurement": "CS (color stage)", "setting": "bananas [3]; T-bag, 5 ppb 1-MCP", "result": 6.6}, {"measurement": "F (firmness)", "setting": "bananas [3]; T-bag, 5 ppb 1-MCP", "result": 0.571, "unit": "kg"}, {"measurement": "SS (sugar spots)", "setting": "bananas [3]; T-bag, 5 ppb 1-MCP", "result": 2.8}, {"measurement": "CS (color stage)", "setting": "bananas [3]; T-bag, 10 ppb 1-MCP", "result": 6.6}, {"measurement": "F (firmness)", "setting": "bananas [3]; T-bag, 10 ppb 1-MCP", "result": 0.568, "unit": "kg"}, {"measurement": "SS (sugar spots)", "setting": "bananas [3]; T-bag, 10 ppb 1-MCP", "result": 2.0}, {"measurement": "CS (color stage)", "setting": "bananas [3]; T-bag, 25 ppb 1-MCP", "result": 6.2}, {"measurement": "F (firmness)", "setting": "bananas [3]; T-bag, 25 ppb 1-MCP", "result": 0.576, "unit": "kg"}, {"measurement": "SS (sugar spots)", "setting": "bananas [3]; T-bag, 25 ppb 1-MCP", "result": 2.5}, {"measurement": "CS (color stage)", "setting": "bananas [3]; T-bag, 50 ppb 1-MCP", "result": 7.0}, {"measurement": "F (firmness)", "setting": "bananas [3]; T-bag, 50 ppb 1-MCP", "result": 0.591, "unit": "kg"}, {"measurement": "SS (sugar spots)", "setting": "bananas [3]; T-bag, 50 ppb 1-MCP", "result": 2.2}, {"measurement": "CS (color stage)", "setting": "bananas [3]; T-bag, 100 ppb 1-MCP", "result": 7.0}, {"measurement": "F (firmness)", "setting": "bananas [3]; T-bag, 100 ppb 1-MCP", "result": 0.571, "unit": "kg"}, {"measurement": "SS (sugar spots)", "setting": "bananas [3]; T-bag, 100 ppb 1-MCP", "result": 2.5}, {"measurement": "CS (color stage)", "setting": "bananas [3]; T-bag, 200 ppb 1-MCP", "result": 7.0}, {"measurement": "F (firmness)", "setting": "bananas [3]; T-bag, 200 ppb 1-MCP", "result": 0.589, "unit": "kg"}, {"measurement": "SS (sugar spots)", "setting": "bananas [3]; T-bag, 200 ppb 1-MCP", "result": 3.0}, {"measurement": "CS (color stage)", "setting": "bananas [3]; T-bag, 1000 ppb 1-MCP", "result": 7.0}, {"measurement": "F (firmness)", "setting": "bananas [3]; T-bag, 1000 ppb 1-MCP", "result": 0.601, "unit": "kg"}, {"measurement": "SS (sugar spots)", "setting": "bananas [3]; T-bag, 1000 ppb 1-MCP", "result": 3.0}, {"measurement": "CS (color stage)", "setting": "bananas [3]; T-bag, 5000 ppb 1-MCP", "result": 6.2}, {"measurement": "F (firmness)", "setting": "bananas [3]; T-bag, 5000 ppb 1-MCP", "result": 0.579, "unit": "kg"}, {"measurement": "SS (sugar spots)", "setting": "bananas [3]; T-bag, 5000 ppb 1-MCP", "result": 3.0}, {"measurement": "CS (color stage)", "setting": "bananas [3]; T-bag, 50000 ppb 1-MCP", "result": 6.6}, {"measurement": "F (firmness)", "setting": "bananas [3]; T-bag, 50000 ppb 1-MCP", "result": 0.563, "unit": "kg"}, {"measurement": "SS (sugar spots)", "setting": "bananas [3]; T-bag, 50000 ppb 1-MCP", "result": 2.8}]}]}
